Data published in ChEMBL document CHEMBL5625172, “Synthesis and evaluation of dihydrofuro[2,3-b]pyridine derivatives as potent IRAK4 inhibitors” (Eur J Med Chem, 2023).
The source made the active and inactive calls. The calls are words filed in the database; no cut-off is given here.

Assays:
[1] = Clearance in Sprague-Dawley rat at 2 mg/kg, iv measured after 5 mins to 24 hrs by LC-MS analysis; type: ADME, organism-based; conditions: in vivo, time 5-1440 min
[2] = Oral bioavailability in Sprague-Dawley rat at 5 to 10 mg/kg measured after 0.25 to 24 hrs by LC-MS analysis; type: ADME, organism-based; conditions: in vivo, dose lower 5 mg/kg, time lower 0.25 hrs, dose upper 10 mg/kg, time upper 24 hrs
[3] = molecular target: T1, Interleukin-1 receptor-associated kinase 4 (Homo sapiens, UniProt Q9NWZ3); assay: Inhibition of IRAK4 (unknown origin) using FAM-labeled peptide as substrate incubated for 10 mins in presence of ATP by mobility shift assay
T1 sequence (Q9NWZ3 whole entry): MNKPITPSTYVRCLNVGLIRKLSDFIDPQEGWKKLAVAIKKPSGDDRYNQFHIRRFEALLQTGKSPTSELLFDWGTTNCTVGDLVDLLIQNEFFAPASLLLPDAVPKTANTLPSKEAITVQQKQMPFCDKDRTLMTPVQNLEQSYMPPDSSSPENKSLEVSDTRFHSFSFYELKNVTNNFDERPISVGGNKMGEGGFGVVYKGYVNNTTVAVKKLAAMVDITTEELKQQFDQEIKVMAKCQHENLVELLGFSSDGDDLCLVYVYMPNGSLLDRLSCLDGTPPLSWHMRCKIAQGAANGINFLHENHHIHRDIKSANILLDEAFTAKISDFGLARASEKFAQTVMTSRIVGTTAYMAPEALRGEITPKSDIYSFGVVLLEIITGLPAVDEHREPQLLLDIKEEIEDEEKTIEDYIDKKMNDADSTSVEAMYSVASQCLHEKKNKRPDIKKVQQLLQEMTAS

[4] = molecular target: Mitogen-activated protein kinase kinase kinase 5 (Homo sapiens, UniProt Q99683); assay: Inhibition of ASK1 (unknown origin) by scintillation proximity assay
Chain of Mitogen-activated protein kinase kinase kinase 5 (Q99683 whole entry): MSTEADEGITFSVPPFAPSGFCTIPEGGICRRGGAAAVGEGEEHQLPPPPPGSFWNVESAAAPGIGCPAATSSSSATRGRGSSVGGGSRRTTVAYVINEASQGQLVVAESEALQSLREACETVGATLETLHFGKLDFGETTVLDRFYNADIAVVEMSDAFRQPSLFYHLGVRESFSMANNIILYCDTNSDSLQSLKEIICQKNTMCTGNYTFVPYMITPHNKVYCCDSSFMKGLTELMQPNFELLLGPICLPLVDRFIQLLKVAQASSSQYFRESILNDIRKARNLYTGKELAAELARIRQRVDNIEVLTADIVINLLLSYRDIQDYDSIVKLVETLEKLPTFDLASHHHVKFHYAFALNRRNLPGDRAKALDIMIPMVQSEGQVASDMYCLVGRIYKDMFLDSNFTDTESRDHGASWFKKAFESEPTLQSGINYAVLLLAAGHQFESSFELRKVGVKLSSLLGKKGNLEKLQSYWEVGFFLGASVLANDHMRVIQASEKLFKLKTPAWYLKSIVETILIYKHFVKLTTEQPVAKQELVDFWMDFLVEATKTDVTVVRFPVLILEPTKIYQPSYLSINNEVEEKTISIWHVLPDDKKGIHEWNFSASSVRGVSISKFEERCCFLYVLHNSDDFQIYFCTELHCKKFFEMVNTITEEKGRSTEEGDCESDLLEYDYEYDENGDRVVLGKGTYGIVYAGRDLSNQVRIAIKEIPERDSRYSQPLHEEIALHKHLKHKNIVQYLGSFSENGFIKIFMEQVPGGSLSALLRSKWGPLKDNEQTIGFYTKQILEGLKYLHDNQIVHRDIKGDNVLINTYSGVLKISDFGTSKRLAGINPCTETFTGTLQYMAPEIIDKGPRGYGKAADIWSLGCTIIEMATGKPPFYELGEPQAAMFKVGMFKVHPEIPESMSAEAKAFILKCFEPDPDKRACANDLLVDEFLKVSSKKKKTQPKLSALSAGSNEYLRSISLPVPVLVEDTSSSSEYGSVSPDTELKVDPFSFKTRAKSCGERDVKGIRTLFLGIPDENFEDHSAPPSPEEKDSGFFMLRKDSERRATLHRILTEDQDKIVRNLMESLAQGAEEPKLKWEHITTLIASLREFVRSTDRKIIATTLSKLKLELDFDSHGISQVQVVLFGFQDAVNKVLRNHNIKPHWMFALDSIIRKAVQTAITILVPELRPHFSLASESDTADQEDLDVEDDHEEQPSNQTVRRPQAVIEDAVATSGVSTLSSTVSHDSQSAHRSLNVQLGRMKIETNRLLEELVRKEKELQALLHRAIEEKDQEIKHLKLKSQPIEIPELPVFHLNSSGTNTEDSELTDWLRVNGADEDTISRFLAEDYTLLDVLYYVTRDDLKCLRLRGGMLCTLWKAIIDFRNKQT

[5] = molecular target: Tyrosine-protein kinase BTK (Homo sapiens, UniProt Q06187); assay: Inhibition of BTK (unknown origin) by scintillation proximity assay
Chain of Tyrosine-protein kinase BTK (Q06187 whole entry): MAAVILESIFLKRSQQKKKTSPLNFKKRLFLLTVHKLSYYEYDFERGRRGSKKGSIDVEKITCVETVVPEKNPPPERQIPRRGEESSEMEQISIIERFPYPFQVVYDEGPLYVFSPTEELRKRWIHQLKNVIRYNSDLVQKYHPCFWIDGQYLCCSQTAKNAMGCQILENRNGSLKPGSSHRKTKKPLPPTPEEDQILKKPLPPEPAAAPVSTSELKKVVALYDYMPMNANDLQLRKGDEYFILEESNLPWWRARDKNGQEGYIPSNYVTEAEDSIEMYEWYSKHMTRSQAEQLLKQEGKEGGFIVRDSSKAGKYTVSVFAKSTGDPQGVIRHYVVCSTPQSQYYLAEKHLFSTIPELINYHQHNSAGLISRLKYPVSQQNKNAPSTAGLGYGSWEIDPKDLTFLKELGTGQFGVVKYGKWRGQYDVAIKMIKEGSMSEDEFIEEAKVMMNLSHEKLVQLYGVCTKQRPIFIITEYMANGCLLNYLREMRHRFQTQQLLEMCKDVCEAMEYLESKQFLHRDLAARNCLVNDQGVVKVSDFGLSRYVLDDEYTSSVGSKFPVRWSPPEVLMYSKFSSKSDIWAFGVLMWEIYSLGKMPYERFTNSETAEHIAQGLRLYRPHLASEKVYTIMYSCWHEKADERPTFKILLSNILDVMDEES

[6] = molecular target: Serine/threonine-protein kinase B-raf (Homo sapiens, UniProt P15056); assay: Inhibition of B-Raf (unknown origin) by scintillation proximity assay
Chain of Serine/threonine-protein kinase B-raf (P15056 whole entry): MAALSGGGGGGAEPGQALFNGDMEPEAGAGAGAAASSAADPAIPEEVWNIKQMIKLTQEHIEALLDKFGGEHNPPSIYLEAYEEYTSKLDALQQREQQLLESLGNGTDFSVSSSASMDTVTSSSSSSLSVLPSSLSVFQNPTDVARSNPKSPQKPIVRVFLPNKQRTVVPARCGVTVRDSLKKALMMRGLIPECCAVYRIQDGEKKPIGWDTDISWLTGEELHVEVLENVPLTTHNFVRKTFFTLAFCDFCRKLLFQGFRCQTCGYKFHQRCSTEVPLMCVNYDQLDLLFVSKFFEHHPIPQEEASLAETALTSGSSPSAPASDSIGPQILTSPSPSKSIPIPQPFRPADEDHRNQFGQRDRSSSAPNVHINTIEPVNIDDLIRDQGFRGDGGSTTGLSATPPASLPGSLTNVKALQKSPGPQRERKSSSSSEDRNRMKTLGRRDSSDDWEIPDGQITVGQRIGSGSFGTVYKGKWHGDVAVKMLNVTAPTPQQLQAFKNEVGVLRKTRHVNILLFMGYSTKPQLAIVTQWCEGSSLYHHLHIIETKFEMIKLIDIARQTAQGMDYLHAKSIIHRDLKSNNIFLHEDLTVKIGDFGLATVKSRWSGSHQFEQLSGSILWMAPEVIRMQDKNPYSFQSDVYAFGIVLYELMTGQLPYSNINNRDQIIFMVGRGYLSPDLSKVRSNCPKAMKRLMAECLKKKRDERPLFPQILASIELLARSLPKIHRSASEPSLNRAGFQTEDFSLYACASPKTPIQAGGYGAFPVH

[7] = molecular target: Calcium/calmodulin-dependent protein kinase type 1 (Homo sapiens, UniProt Q14012); assay: Inhibition of CaMKI (unknown origin) by scintillation proximity assay
[8] = Inhibition of CDK2/cyclinA (unknown origin) by scintillation proximity assay; design: species or system Homo sapiens
CDK4/Cyclin D3 = CDK4/Cyclin D3 (Homo sapiens, UniProt P11802); assay: Inhibition of CDK4/cyclinD3 (unknown origin) by scintillation proximity assay; type: protein-complex assay
[9] = molecular target: Dual specificity protein kinase CLK1 (Homo sapiens, UniProt P49759); assay: Inhibition of CLK1 (unknown origin) by scintillation proximity assay
[10] = molecular target: Serine/threonine-protein kinase 17A (Homo sapiens, UniProt Q9UEE5); assay: Inhibition of DRAK1 (unknown origin) by scintillation proximity assay
[11] = molecular target: Dual specificity tyrosine-phosphorylation-regulated kinase 1A (Homo sapiens, UniProt Q13627); assay: Inhibition of DYRK1A (unknown origin) by scintillation proximity assay
[12] = molecular target: Epidermal growth factor receptor (Homo sapiens, UniProt P00533); assay: Inhibition of EGFR (unknown origin) by scintillation proximity assay
[13] = molecular target: Receptor-type tyrosine-protein kinase FLT3 (Homo sapiens, UniProt P36888); assay: Inhibition of FLT3 (unknown origin) by scintillation proximity assay
[14] = molecular target: MAP kinase-activated protein kinase 2 (Homo sapiens, UniProt P49137); assay: Inhibition of MAPKAP-K2 (unknown origin) by scintillation proximity assay
[15] = molecular target: Homeodomain-interacting protein kinase 1 (Homo sapiens, UniProt Q86Z02); assay: Inhibition of HIPK1 (unknown origin) by scintillation proximity assay
Chain of Homeodomain-interacting protein kinase 1 (Q86Z02 whole entry): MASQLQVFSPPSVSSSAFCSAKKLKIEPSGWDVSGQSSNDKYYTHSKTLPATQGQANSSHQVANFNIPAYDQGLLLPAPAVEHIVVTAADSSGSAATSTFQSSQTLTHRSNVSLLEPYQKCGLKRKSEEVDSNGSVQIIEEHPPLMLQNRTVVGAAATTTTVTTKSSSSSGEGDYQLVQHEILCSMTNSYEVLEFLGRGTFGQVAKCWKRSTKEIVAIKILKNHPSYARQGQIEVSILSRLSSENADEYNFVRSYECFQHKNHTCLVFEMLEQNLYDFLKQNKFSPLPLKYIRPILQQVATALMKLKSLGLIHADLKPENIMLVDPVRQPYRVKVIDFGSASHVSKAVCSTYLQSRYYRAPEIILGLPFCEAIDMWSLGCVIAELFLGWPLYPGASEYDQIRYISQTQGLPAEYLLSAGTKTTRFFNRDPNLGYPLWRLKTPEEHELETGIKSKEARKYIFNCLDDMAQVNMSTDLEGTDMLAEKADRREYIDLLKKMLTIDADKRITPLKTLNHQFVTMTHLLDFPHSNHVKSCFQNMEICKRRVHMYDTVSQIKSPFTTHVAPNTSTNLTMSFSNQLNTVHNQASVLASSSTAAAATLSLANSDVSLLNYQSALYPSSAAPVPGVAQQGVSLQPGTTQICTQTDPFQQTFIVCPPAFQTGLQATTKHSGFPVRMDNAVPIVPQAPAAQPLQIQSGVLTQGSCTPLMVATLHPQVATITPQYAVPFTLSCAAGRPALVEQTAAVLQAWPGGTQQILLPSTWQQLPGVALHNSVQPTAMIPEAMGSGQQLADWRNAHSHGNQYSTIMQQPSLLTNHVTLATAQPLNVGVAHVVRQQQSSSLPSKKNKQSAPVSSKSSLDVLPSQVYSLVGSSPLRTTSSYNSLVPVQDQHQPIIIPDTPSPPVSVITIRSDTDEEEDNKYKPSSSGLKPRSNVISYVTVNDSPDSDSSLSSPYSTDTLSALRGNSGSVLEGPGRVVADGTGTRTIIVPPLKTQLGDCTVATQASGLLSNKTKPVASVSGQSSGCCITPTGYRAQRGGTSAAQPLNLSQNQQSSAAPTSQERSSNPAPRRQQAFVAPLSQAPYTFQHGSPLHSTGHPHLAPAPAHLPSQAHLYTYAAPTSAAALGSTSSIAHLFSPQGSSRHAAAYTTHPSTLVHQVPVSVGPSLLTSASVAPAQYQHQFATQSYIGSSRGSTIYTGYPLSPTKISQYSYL

[16] = molecular target: Tyrosine-protein kinase JAK1 (Homo sapiens, UniProt P23458); assay: Inhibition of JAK1 (unknown origin) by scintillation proximity assay
[17] = molecular target: Serine/threonine-protein kinase MRCK alpha (Homo sapiens, UniProt Q5VT25); assay: Inhibition of MRCKa (unknown origin) by scintillation proximity assay
[18] = molecular target: Serine/threonine-protein kinase 38 (Homo sapiens, UniProt Q15208); assay: Inhibition of NDR1 (unknown origin) by scintillation proximity assay
Chain of Serine/threonine-protein kinase 38 (Q15208 whole entry): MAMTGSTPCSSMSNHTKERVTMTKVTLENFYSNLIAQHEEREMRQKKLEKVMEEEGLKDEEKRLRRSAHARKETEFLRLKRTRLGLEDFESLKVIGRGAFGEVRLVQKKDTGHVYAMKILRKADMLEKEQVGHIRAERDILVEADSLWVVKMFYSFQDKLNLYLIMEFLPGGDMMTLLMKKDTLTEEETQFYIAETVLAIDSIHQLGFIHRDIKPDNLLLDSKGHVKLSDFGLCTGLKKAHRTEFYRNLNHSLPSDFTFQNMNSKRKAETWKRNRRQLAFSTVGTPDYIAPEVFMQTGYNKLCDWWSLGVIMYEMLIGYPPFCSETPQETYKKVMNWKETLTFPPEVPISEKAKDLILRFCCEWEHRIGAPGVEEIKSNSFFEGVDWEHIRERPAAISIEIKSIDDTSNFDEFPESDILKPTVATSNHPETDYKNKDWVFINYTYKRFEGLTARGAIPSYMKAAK

[19] = molecular target: Serine/threonine-protein kinase PAK 1 (Homo sapiens, UniProt Q13153); assay: Inhibition of PAK1 (unknown origin) by scintillation proximity assay
[20] = molecular target: cAMP-dependent protein kinase catalytic subunit beta (Homo sapiens, UniProt P22694); assay: Inhibition of PKA-C beta (unknown origin) by scintillation proximity assay
[21] = molecular target: Receptor-interacting serine/threonine-protein kinase 1 (Homo sapiens, UniProt Q13546); assay: Inhibition of RIPK1 (unknown origin) by scintillation proximity assay
[22] = molecular target: Receptor-interacting serine/threonine-protein kinase 2 (Homo sapiens, UniProt O43353); assay: Inhibition of RIPK2 (unknown origin) by scintillation proximity assay
Chain of Receptor-interacting serine/threonine-protein kinase 2 (O43353 whole entry): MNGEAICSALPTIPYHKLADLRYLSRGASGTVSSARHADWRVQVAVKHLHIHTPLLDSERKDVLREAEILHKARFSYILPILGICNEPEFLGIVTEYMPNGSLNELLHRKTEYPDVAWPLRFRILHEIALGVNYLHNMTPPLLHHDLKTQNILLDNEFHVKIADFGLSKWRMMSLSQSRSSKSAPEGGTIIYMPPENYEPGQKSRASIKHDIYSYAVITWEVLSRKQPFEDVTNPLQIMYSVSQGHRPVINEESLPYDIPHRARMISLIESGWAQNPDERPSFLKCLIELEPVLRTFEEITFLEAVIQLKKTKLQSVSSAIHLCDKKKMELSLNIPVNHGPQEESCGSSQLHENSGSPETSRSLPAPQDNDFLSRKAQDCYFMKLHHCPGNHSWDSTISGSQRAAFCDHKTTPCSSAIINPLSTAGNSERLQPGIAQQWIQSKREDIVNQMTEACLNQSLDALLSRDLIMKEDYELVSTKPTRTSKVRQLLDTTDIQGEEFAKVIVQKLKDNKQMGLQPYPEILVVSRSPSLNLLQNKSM

[23] = molecular target: Interleukin-1 receptor-associated kinase 1 (Homo sapiens, UniProt P51617); assay: Binding affinity to IRAK1 (unknown origin) by kinomescan competition binding assay
[24] = Plasma protein binding in human by LC-MS analysis; type: ADME, cell-free; conditions: read-out: PPB
[25] = Plasma protein binding in CD-1 mouse by LC-MS analysis; type: ADME, cell-free; conditions: read-out: PPB (converted)
[26] = Plasma protein binding in Sprague-Dawley rat by LC-MS analysis; type: ADME, cell-free; conditions: read-out: PPB (converted)
[27] = Inhibition of LPS-induced TNFalpha mRNA expression in immortalized mouse BMDM cells preincubated for 2 hrs followed by LPS stimulation and measured after 16 hrs by qPCR analysis; type: functional, cell-based
[28] = Inhibition of LPS-induced IL-6 mRNA expression in immortalized mouse BMDM cells preincubated for 2 hrs followed by LPS stimulation and measured after 16 hrs by qPCR analysis; type: functional, cell-based
[29] = Inhibition of LPS-induced IL-6 mRNA expression in human PBMC cells preincubated for 2 hrs followed by LPS stimulation and measured after 16 hrs by qPCR analysis; type: functional, cell-based
[30] = Inhibition of LPS-induced TNFalpha protein expression in immortalized mouse BMDM cells preincubated for 2 hrs followed by LPS stimulation and measured after 16 hrs by ELISA; type: functional, cell-based
[31] = Inhibition of LPS-induced IL-6 protein expression in immortalized mouse BMDM cells preincubated for 2 hrs followed by LPS stimulation and measured after 16 hrs by ELISA; type: functional, cell-based
[32] = Inhibition of LPS-induced TNFalpha protein expression in human PBMC cells preincubated for 2 hrs followed by LPS stimulation and measured after 16 hrs by ELISA; type: functional, cell-based
Mus musculus = assay: In vivo inhibition of LPS-induced TNF-alpha protein level in C57BL/6 mouse assessed as reduction in TNF-alpha level in serum at 50 to 100 mg/kg, po administered for 1 hr followed by LPS stimulation and measured after 3 hrs by ELISA; type: functional, organism-based; conditions: dose 50-100 mg/kg, time 4.0 hrs
[33] = Clearance in Sprague-Dawley rat assessed as liver blood flow at 2 mg/kg, iv measured after 5 mins to 24 hrs by LC-MS analysis; type: ADME, organism-based; conditions: in vivo, time 5-1440 min
MEF = assay: Cytotoxicity against MEF cells at 3 uM; type: toxicity, cell-based; conditions: mouse
BMDM = assay: Cytotoxicity against immortalized mouse BMDM cells at 3 uM; type: toxicity, cell-based
[34] = Cytotoxicity against Splenocytes (unknown origin) at 3 uM; type: toxicity, cell-based; conditions: splenocyte

SMILES: CCOc1nc2c(cc1C(=O)Nc1cccc(-c3cnn(C)c3)n1)CC(C)(C)O2
- clearance [1]: 43 mL/min/kg
- bioavailability [2]: 3.6%

SMILES: CN1CCC(Oc2nc3c(cc2C(=O)Nc2cccc(-c4cnn(C)c4)n2)CC(C)(C)O3)C1 (stereo unspecified)
- IC50 [3]: 74 nM

SMILES: Cn1cc(-c2cccc(NC(=O)c3cc4c(nc3O[C@@H]3CCOC3)OC(C)(C)C4)n2)cn1
- clearance [1]: 31 mL/min/kg
- bioavailability [2]: 6.2%

SMILES: CCOc1nc2c(cc1C(=O)Nc1cccc(-c3ccn(C)n3)n1)CC(C)(C)O2
- IC50 [3]: 1370 nM

SMILES: CCOc1nc2c(cc1C(=O)Nc1cccc(C(F)(F)F)n1)CC(C)(C)O2
- IC50 [3]: 194 nM

SMILES: Cn1cc(-c2cccc(NC(=O)c3cc4c(nc3OC3CC3)OC(C)(C)C4)n2)cn1
- clearance [1]: 43 mL/min/kg
- bioavailability [2]: 1.6%

SMILES: Cn1cc(-c2cccc(NC(=O)c3cc4c(nc3O[C@H]3C[C@@H](O)C3)OC(C)(C)C4)n2)cn1
- clearance [1]: 12 mL/min/kg
- bioavailability [2]: 21%
- IC50 [4]: > 30000 nM
- IC50 [5]: > 30000 nM
- IC50 [6]: 25700 nM
- IC50 [7]: > 30000 nM
- IC50 [8]: 2990 nM
- IC50 (CDK4/Cyclin D3): > 30000 nM
- IC50 [9]: 9 nM
- IC50 [10]: 788 nM
- IC50 [11]: 34 nM
- IC50 [12]: > 30000 nM
- IC50 [13]: 11 nM
- IC50 [14]: > 30000 nM
- IC50 [15]: 26500 nM
- IC50 [16]: > 30000 nM
- IC50 [17]: > 30000 nM
- IC50 [18]: 16500 nM
- IC50 [19]: > 30000 nM
- IC50 [20]: > 30000 nM
- IC50 [21]: 4690 nM
- IC50 [22]: 8350 nM
- Kd [23]: 13 nM
- fraction unbound [24]: 0.01
- fraction unbound [25]: 0.02
- fraction unbound [26]: 0.03
- IC50 [27]: 1200 nM
- IC50 [28]: 214 nM
- IC50 [29]: 560 nM
- IC50 [30]: 495 nM
- IC50 [31]: 130 nM
- IC50 [32]: 54.1 nM
- inhibition (Mus musculus): Active
- LBF [33]: < 30%
- Activity (MEF): Toxic
- Activity (BMDM): Toxic
- Activity [34]: Toxic

SMILES: CCOc1nc2c(cc1C(=O)Nc1cccc(C)n1)CC(C)(C)O2
- IC50 [3]: 112 nM

SMILES: Cn1cc(-c2cccc(NC(=O)c3cc4c(nc3OC3CCCC3)OC(C)(C)C4)n2)cn1
- IC50 [3]: 5.7 nM

SMILES: Cn1cc(-c2cccc(NC(=O)c3cc4c(nc3OC3COC3)OC(C)(C)C4)n2)cn1
- clearance [1]: 58 mL/min/kg
- bioavailability [2]: 1.5%

SMILES: CCOc1nc2c(cc1C(=O)Nc1cnn(C)c1)CC(C)(C)O2
- IC50 [3]: > 6000 nM

SMILES: CNCCOc1nc2c(cc1C(=O)Nc1cccc(-c3cnn(C)c3)n1)CC(C)(C)O2
- IC50 [3]: 111 nM

SMILES: CCOc1nc2c(cc1C(=O)Nc1cccc(-c3ccnn3C)n1)CC(C)(C)O2
- IC50 [3]: 75 nM

SMILES: CC(C)Oc1nc2c(cc1C(=O)Nc1cccc(-c3cnn(C)c3)n1)CC(C)(C)O2
- IC50 [3]: 5.8 nM
- clearance [1]: 44 mL/min/kg
- bioavailability [2]: 7.5%

SMILES: Cn1cc(-c2cccc(NC(=O)c3cc4c(nc3O[C@H]3C[C@H](O)C3)OC(C)(C)C4)n2)cn1
- clearance [1]: 18 mL/min/kg
- bioavailability [2]: 11%

SMILES: Cn1cc(-c2cccc(NC(=O)c3cc4c(nc3OC3CCNC3)OC(C)(C)C4)n2)cn1 (stereo unspecified)
- IC50 [3]: 379 nM

SMILES: CCOc1nc2c(cc1C(=O)Nc1cccc(OC)n1)CC(C)(C)O2
- IC50 [3]: 87 nM

SMILES: COc1nc2c(cc1C(=O)Nc1cccc(-c3cnn(C)c3)n1)CC(C)(C)O2
- IC50 [3]: 51 nM

SMILES: CCOc1nc2c(cc1C(=O)Nc1cccc(C(F)F)n1)CC(C)(C)O2
- IC50 [3]: 48 nM

SMILES: Cn1cc(-c2cccc(NC(=O)c3cc4c(nc3OC3CCC3)OC(C)(C)C4)n2)cn1
- IC50 [3]: 6 nM
- clearance [1]: 41 mL/min/kg
- bioavailability [2]: 3.1%

SMILES: CCOc1nc2c(cc1C(=O)Nc1cnn3cccnc13)CC(C)(C)O2
- IC50 [3]: 96 nM
